Broadly, the share remaining is the share of the starting amount still present when the sample was taken.

One data set relates to BMDMs. Briefly: MTT assay for cell viability. The settings on record: different concentrations and times (Fig. 3b). The data set is classed as cell-based, mouse. As for the experimental part: The mouse macrophage cell line RAW264.7 (ATCC TIB-71; American Type Culture Collection) and HEK293T (ATCC-11268) cells were maintained in DMEM (Invitrogen) containing 10% FBS (Invitrogen), sodium pyruvate, nonessential amino acids, penicillin G (100 IU/ml), and streptomycin (100 μg/ml). Transient transfections were performed with Lipofectamine 3000 (Invitrogen), or calcium phosphate (Clontech), according to the manufacturer’s instructions. Raw264.7 stable cell lines were generated using a standard selection protocol with 2 μg/ml of puromycin. Mouse primary bone marrow derived-macrophages (BMDMs) were isolated from C57BL/6 mice and cultured in DMEM for 3–5 days in the presence of 25 ng/ml recombinant macrophage colony stimulating factor (R&D Systems, 416-ML, Minneapolis, MN, USA), as described previously. Human adherent monocytes were prepared from PBMCs donated by healthy subjects, as described previously.
Figure 3 TIPTP robustly suppresses LPS/ATP-mediated Rubicon-p22phox interaction and ROS-mediated inflammation. (a) Structure of the TIPTP. (b) MTT assay for cell viability. BMDMs were incubated with TIPTP for the indicated times at the indicated TIPTP concentrations (upper). WCLs were used for IB with α22phox, αRubicon, or αActin (lower). […] Quantitative analysis of mean fluorescence intensities of ROS (lower). […] (f) Culture supernatants were harvested and analyzed for cytokines by ELISA. […]
Background: Tetrazolium assays rely on reduction of a dye to a coloured formazan, in cell work by metabolically active cells.

Data set [1] can be described thus: Microsomal stability assay (human liver microsomes). The data set is classed as in vitro ADME. As for the experimental part:
To human liver microsomes (0.5 mg/mL) were added 0.1 M phosphate buffer (pH 7.4) and tested compounds (1 μM). After incubation at 37 °C for 5 min, NADPH generation system solution was added and incubated at 37 °C for 30 min. To terminate reaction, acetonitrile including internal standard (chloprapamide) was added, and the solution was centrifuged for 5 min (14,000 rpm, 4 °C). The supernatant was then injected into the LC-MS/MS system to analyze the microsomal stability of the tested compound.

Data set [2] deals with collagen-induced arthritis. Briefly: Collagen-induced arthritis (CIA) mouse model. The data set is classed as in vivo. As for the experimental part:
The collagen-induced arthritis mouse model was established as previously described. Briefly, male DBA/1 J mice (6 − 8-weeks-old) were obtained from Beijing Vital River Laboratory Animal Technology Co., Ltd. (Charles River Laboratories department in Beijing, China), and kept under specific pathogen-free conditions. Chick collagen type II (Chondrex, Redmond, Washington, USA) was dissolved in 0.05 M acetic acid to a concentration of 2 mg/mL and emulsified with a complete Freund’s adjuvant (2 mg/mL M. tuberculosis H37Ra, Chondrex). At the beginning of the experiments (day 0), the mice were immunized with a 0.1 mL emulsion containing 100 μg of collagen at the tail base with a glass syringe and 25-G needles and then administered a booster (on day 21) with the same preparation of collagen and incomplete Freund’s adjuvant (Chondrex).
Cell culture supernatants, mice sera and synovial fluid were analyzed for cytokine content using the BD OptEIA ELISA set (BD Pharmingen) for the detection of TNF-α, IL-6, IL-1β, and IL-18. All assays were performed as recommended by the manufacturer.
(§1) Intracellular ROS levels were measured by flow cytometry from cells cultured in serum-free medium and loaded with the redox-sensitive dye 2 µM dihydroethidium (DHE for O2^−; Calbiochem) or 10 µM 2′,7′-Dichlorofluorescin diacetate (DCFH-DA for H2O2; Calbiochem)[18],[19]. The cells were thoroughly and quickly washed with pulse spin and immediately acquired for analyses in FACSCalibur (BD Biosciences, San Jose, CA). The data were plotted using CellQuest software (BD Biosciences).
Figure 4 TIPTP protects mice from CIA mice. (a) Schematic of the CIA model treated with TIPTP (upper). FACS analysis for superoxide and hydrogen peroxide from synovial fluid containing synoviocytes from CIA (lower). (b) Representative H&E staining of the ankle joints of each group were determined at 4 wks of CIA (left). Clinical arthritis score and swelling of paws (right) from ten mice per group. Scale bars: 500 μm. Serum (c) and Synovial fluid (d) were harvested at 4 wks of CIA and analyzed for cytokines by ELISA. […]
Arthritis mice were evaluated for disease progression three times a week as follows ^1,2. Each limb was scored according to the severity of inflammation, where 0 : no evidence of redness or swelling, 1 : redness and slight swelling confined to the tarsal joints or ankle, 2 : redness and mild swelling extending from the ankle to the tarsal joints, 3 : redness and moderate swelling extending from the ankle to the metatarsal joints, and 4 : severe swelling encompassing the ankle, foot, and digits, or ankylosis of the limb. […]

The next data set deals with ROS (O2− and H2O2). As to the kind of experiment: Flow cytometric measurement of ROS production in BMDMs. In kind it is cell-based, mouse. The settings on record: LPS-primed BMDMs, compound 1 h, ATP 30 min (Fig. 3d). As for the experimental part: as §1
Figure 3 TIPTP robustly suppresses LPS/ATP-mediated Rubicon-p22phox interaction and ROS-mediated inflammation. (a) Structure of the TIPTP. (b) MTT assay for cell viability. BMDMs were incubated with TIPTP for the indicated times at the indicated TIPTP concentrations (upper). WCLs were used for IB with α22phox, αRubicon, or αActin (lower). (c–f) LPS (100 ng/ml)-primed BMDMs were treated with compounds for 1 h, and then activated with ATP (1 mM) for 30 min. (c) NADPH oxidase activity. (d) FACS analysis for superoxide and hydrogen peroxide (upper). Quantitative analysis of mean fluorescence intensities of ROS (lower). (e) BMDMs were incubated with increasing concentrations of compound 1 and TIPTP (com 2) (***). IP with αRubicon, followed by IB with αp22phox, αBeclin-1, αUVRAG, αRubicon. […] (f) Culture supernatants were harvested and analyzed for cytokines by ELISA. […]

On to `C[C@@H](Oc1cccc(-n2cc3c(n2)CCCC3)c1)C(=O)Nc1nnc(C(F)(F)F)s1` [TIPTP, (R)-2-(3-(4,5,6,7-tetrahydro-2H-indazol-2-yl)phenoxy)-N-(5-(trifluoromethyl)-1,3,4-thiadiazol-2-yl)propanamide], for which, in the data set with BMDMs, the “cell viability of BMDMs” value was “did not induce any significant change”. For the same compound, the “metabolism in human hepatic microsomes” value in data set [1] (in words) is reported as “easily metabolized”. Moreover, the share remaining at 0.5 h, 1 μM in data set [1] (pH 7.4, human liver microsomes 0.5 mg/mL, 1 μM, 30 min, read-out: Human liver microsomal stability (% remaining after 30 min)) came to 4.4%. The “severity of RA (clinical parameters, paw thickness, histology) vs vehicle-treated CIA mice” value in data set [2] (CIA mice (Fig. 4b, Supplemental Fig. 6a)) was “markedly lower”. Besides, in data set [2] (CIA mice, 4 wks, ELISA (Fig. 4c,d)), the “serum and synovial fluid concentrations of TNF-α, IL-6, IL-1β, and IL-18” value is “significantly attenuated”. For the same compound, the “production of ROS by synovial tissues” value in data set [2] (CIA mice, dose-dependent (Fig. 4a)) is “significantly attenuated”. Moreover, the “binding of p22phox with Rubicon protein in synoviocytes” value in data set [2] (synoviocytes from CIA mice, co-IP (Fig. 4e)) is “markedly decreased”. Also, in the data set with ROS (O2− and H2O2), the “ROS (O2− and H2O2) generation” value is “inhibited in a dose-dependent manner”.

Values taken from PMC7067850, “Identification of highly potent and selective inhibitor, TIPTP, of the p22phox-Rubicon axis as a therapeutic agent for rheumatoid arthritis” (Scientific Reports, 2020).
